The source made the active and inactive calls.
Key:
[1] = target: Lysosomal acid glucosylceramidase (Homo sapiens, UniProt P04062); experiment: Dose response cell-based high throughput screening assay to identify enhancers of beta-glucosidase activity. [Related pubchem assays: 784 ]; format: functional
[2] = target: Cytochrome P450 2C9 (Homo sapiens, UniProt P11712)
[3] = target: Cytochrome P450 2C19 (Homo sapiens, UniProt P33261); experiment: Cytochrome panel assay with activity outcomes. Panel member name: p450-cyp2c19 Compounds with AC50 equal or less than 10 uM are considered active; format: functional; conditions: read-out: AC50
[4] = test system: CHO-K1; experiment: (§1) Counterscreen for antagonists of the orexin 1 receptor (OX1R; HCRTR1): Homogeneous time resolved fluorescence (HTRF)-based cell-based dose response assay to identify antagonists of the parental CHO-K1 cell line. [Related pubchem assays (depositor defined):AID434989, AID435008, AID463079, AID485270, AID492963, AID492964, AID492965, AID493232, AID504699, AID504701]; format: functional; conditions: Cricetulus griseus
[5] = target: T1, Orexin/Hypocretin receptor type 1 (Homo sapiens, UniProt O43613); experiment: Homogeneous Time Resolved Fluorescence (HTRF)-based cell-based high throughput dose response assay for antagonists of the orexin 1 receptor (OX1R; HCRTR1). [Related pubchem assays (depositor defined):AID434989, AID435008, AID463079, AID485270, AID492963, AID492964, AID492965, AID493232, AID504717, AID504718]; format: functional
T1 sequence (O43613 whole entry): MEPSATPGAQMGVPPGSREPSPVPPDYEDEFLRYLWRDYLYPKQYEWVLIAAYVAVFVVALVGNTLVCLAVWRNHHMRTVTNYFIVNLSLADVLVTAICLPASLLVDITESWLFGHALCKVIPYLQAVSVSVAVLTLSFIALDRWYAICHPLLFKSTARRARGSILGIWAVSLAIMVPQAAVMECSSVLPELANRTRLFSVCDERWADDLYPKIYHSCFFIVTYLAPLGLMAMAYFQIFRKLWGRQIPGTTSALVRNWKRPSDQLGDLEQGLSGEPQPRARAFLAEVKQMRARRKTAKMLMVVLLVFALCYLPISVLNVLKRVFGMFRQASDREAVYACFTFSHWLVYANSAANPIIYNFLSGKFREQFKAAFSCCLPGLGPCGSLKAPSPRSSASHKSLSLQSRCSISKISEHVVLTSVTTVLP

[6] = as §1, with “Fluorescence-based” for “Homogeneous time resolved fluorescence (HTRF)-based”, “cell-based high throughput” for “cell-based”, “CHO” for “CHO-K1”; format: functional
[7] = A Cell Based Secondary Assay To Explore Cytotoxicity of Compounds that Sensitize Mycobacterium Tuberculosis to Beta-Lactam Antibiotics.; format: functional
[8] = target: T1, Orexin/Hypocretin receptor type 1; experiment: Fluorescence-based cell-based high throughput dose response assay for antagonists of the orexin 1 receptor (OX1R; HCRTR1). [Related pubchem assays (depositor defined):AID434989, AID435008, AID463079, AID485270, AID492963, AID492964, AID492965, AID493232, AID504717, AID504718]; format: functional
[9] = target: T2, Orexin receptor type 2 (Homo sapiens, UniProt O43614); experiment: Counterscreen assay for antagonists of the orexin 1 receptor (OX1R; HCRTR1): Fluorescence-based cell-based dose response assay for antagonists of the orexin 2 receptor (OX2R; HCRTR2), run by assay provider.; format: functional
T2 sequence (O43614 whole entry): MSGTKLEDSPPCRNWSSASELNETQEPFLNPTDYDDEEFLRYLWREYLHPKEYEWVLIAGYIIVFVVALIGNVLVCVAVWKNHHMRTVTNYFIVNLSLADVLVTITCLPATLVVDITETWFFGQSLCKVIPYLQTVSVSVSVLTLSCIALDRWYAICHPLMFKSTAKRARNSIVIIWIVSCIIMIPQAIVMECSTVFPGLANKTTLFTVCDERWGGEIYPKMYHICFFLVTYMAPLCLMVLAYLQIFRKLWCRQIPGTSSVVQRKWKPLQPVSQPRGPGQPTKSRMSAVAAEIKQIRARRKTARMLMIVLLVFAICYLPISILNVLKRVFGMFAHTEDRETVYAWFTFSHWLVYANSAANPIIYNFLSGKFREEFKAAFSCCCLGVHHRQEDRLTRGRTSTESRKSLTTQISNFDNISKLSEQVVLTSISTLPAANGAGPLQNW

[10] = target: T2, Orexin receptor type 2; experiment: Counterscreen assay for antagonists of the orexin 1 receptor (OX1R; HCRTR1): Homogeneous Time Resolved Fluorescence (HTRF)-based cell-based dose response assay for antagonists of the orexin 2 receptor (OX2R; HCRTR2), run by assay provider.; format: functional
[11] = target: Procathepsin L (Homo sapiens, UniProt P07711)
Procathepsin L, sequence (P07711 whole entry): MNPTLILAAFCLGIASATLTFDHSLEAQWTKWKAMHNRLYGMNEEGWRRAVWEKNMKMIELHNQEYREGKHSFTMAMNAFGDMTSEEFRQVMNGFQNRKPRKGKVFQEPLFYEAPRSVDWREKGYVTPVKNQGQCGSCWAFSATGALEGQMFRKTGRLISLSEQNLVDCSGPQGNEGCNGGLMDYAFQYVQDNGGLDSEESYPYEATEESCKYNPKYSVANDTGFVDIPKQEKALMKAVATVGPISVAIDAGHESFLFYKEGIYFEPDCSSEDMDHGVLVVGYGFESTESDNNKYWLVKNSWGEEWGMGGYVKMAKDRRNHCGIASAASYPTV

[12] = target: Aspartyl aminopeptidase (Plasmodium falciparum 3D7, UniProt Q8I2J3)
Aspartyl aminopeptidase, sequence (Q8I2J3 whole entry): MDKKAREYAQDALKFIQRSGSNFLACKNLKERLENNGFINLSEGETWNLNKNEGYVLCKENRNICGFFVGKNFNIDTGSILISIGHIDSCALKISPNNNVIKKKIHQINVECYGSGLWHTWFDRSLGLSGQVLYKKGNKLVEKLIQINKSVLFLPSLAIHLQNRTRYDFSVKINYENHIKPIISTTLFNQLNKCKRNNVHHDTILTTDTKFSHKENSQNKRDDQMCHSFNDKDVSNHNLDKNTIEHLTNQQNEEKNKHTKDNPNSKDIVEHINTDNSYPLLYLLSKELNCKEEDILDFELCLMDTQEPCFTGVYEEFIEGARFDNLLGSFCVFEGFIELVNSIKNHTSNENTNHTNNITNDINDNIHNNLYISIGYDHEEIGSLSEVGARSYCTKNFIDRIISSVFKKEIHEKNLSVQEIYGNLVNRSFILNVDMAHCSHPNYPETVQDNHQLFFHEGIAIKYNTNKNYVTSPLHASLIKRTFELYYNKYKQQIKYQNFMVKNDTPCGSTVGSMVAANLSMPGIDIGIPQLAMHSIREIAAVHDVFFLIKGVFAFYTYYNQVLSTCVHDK

[13] = target: T3, Voltage-dependent T-type calcium channel subunit alpha-1H (Homo sapiens, UniProt O95180); format: functional
T3 sequence (O95180 whole entry): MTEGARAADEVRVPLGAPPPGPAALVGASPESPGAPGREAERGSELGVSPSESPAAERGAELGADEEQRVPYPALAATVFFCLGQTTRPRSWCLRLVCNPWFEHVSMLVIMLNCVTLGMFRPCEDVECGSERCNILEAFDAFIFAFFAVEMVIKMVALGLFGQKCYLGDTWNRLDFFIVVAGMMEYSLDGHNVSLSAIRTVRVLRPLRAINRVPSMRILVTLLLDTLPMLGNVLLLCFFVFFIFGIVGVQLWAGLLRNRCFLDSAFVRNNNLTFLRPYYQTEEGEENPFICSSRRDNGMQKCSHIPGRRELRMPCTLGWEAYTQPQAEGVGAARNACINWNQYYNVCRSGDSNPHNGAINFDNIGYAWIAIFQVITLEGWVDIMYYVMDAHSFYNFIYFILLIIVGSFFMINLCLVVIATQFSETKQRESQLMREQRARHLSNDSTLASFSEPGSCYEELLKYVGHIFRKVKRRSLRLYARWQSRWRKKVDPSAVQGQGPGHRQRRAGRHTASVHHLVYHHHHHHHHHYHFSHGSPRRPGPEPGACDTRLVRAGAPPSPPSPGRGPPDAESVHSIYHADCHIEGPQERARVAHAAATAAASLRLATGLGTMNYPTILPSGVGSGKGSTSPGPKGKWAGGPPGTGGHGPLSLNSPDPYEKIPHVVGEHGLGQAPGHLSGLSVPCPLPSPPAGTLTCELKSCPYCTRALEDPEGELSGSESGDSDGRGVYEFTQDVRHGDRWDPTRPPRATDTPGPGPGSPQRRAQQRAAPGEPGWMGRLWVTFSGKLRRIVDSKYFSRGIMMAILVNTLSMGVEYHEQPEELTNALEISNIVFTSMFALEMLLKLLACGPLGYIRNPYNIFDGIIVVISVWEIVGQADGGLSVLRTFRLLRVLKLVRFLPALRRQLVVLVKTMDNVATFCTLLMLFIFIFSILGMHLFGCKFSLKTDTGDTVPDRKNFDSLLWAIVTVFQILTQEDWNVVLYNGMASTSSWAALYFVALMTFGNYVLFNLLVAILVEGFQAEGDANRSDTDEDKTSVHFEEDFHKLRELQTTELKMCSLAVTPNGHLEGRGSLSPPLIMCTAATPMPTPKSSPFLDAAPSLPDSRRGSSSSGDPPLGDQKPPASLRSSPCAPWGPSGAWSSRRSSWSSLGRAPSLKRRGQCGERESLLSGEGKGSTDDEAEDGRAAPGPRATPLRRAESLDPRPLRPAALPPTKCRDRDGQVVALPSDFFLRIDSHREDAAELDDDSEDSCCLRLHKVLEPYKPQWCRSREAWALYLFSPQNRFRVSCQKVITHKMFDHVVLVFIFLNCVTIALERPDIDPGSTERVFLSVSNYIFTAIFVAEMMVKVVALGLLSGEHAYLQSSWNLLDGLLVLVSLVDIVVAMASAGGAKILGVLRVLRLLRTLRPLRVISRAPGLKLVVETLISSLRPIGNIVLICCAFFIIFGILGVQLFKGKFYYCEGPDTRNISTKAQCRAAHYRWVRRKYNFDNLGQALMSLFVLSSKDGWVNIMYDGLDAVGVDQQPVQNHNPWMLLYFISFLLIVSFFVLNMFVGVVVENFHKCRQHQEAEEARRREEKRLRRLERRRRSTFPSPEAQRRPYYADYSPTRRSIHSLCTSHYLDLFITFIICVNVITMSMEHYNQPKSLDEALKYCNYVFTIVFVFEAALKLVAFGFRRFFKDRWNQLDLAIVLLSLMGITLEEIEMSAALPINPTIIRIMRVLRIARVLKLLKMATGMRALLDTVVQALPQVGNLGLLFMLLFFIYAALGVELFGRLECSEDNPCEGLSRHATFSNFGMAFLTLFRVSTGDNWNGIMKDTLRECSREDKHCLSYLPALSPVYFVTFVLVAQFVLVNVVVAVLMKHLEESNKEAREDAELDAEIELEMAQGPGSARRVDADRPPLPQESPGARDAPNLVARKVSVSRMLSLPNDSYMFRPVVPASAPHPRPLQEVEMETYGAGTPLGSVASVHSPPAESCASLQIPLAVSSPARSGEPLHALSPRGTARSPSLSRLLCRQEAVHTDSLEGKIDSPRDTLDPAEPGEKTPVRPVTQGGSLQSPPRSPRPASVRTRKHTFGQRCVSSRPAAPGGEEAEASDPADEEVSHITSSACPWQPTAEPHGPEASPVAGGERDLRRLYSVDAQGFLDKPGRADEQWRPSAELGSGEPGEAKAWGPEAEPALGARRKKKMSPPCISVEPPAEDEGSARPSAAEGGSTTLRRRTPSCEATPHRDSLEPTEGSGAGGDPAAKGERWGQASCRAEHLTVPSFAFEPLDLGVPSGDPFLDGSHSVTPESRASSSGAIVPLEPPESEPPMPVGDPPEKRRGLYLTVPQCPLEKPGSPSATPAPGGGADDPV

[14] = target: T4, Heat shock factor protein 1 (Mus musculus, UniProt P38532); experiment: inhibition of MG132-induced HSE-luciferase signal, confirmation, cell-based, NIH3T3, luminescence, dose retest (AID 2382); format: functional;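 also: NIH3T3 fibroblasts with HSF1-driven luciferase reporter stressed by proteasome inhibitor MG132; luminescence from HSF1-driven luciferase expression after 8 hours of MG132 stress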
T4 sequence (P38532 whole entry): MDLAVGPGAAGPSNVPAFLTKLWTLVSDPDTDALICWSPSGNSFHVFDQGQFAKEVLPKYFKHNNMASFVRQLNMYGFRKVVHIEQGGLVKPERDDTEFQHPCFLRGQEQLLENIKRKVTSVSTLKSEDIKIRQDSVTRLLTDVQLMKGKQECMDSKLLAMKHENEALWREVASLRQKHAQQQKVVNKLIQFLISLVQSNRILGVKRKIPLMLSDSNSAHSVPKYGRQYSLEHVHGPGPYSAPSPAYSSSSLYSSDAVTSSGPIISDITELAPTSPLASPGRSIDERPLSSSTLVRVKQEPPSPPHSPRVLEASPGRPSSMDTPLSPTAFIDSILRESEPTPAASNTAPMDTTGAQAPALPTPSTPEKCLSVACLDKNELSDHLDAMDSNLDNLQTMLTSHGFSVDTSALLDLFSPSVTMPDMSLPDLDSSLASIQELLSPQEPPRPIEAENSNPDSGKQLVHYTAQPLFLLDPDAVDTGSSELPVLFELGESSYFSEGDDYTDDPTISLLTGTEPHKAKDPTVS

[15] = target: T5, Calpain-2 catalytic subunit (Sus scrofa, UniProt P43367); experiment: pig calpain II inhibitor potency, dose response, biochemical, fluorogenic peptide substrate (AID 1420); format: functional
T5 sequence (P43367 whole entry): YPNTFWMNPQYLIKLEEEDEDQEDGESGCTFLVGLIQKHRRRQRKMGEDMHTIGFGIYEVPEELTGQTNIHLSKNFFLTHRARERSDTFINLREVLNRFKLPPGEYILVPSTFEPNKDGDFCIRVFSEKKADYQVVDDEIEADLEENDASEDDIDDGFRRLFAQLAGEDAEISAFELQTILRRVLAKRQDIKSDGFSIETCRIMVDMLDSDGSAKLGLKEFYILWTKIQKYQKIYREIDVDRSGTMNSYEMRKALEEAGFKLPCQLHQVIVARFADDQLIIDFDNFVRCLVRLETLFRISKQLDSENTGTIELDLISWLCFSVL

[16] = target: T3, Voltage-dependent T-type calcium channel subunit alpha-1H; experiment: Inhibitors of T-Type Calcium Channels. [Related pubchem assays (depositor defined):AID449739, AID463087, AID489005, AID493041, AID504579, AID504584, AID504619, AID504628]; format: functional
[17] = target: T6, Alkaline phosphatase, tissue-nonspecific isozyme (Homo sapiens, UniProt P05186)
T6 sequence (P05186 whole entry): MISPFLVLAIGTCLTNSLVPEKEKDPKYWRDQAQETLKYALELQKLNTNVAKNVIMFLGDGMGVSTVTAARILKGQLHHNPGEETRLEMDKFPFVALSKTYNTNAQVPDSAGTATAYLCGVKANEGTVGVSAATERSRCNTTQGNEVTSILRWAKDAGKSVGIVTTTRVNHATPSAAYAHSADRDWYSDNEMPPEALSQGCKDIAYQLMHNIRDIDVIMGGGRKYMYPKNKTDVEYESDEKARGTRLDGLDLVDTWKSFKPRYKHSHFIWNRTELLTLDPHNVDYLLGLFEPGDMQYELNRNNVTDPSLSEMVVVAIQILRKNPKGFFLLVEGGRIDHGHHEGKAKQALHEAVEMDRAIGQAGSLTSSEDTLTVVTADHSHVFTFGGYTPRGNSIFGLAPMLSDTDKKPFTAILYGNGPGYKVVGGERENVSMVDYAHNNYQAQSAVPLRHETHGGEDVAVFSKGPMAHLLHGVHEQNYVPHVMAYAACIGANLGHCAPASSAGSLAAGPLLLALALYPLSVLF

[18] = target: Peroxisome proliferator-activated receptor gamma/Nuclear receptor coactivator 2 (Homo sapiens, UniProt P37231); format: functional;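 also: agonist potency for raising coactivator recruitment to the receptor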
[19] = target: Peroxisome proliferator-activated receptor gamma/Nuclear receptor coactivator 1 (Homo sapiens, UniProt P37231); format: functional;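 also: agonist potency as compounds enhance coactivator SRC-1 recruitment to PPARgamma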
[20] = target: Peroxisome proliferator-activated receptor gamma/Nuclear receptor coactivator 3 (Homo sapiens, UniProt P37231); format: functional;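 also: agonist potency for raising coactivator recruitment to the receptor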
[21] = target: T7, Cytochrome P450 1A2 (Homo sapiens, UniProt P05177);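 also: PubChem cytochrome P450 panel assay, CYP1A2 panel member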
T7 sequence (P05177 whole entry): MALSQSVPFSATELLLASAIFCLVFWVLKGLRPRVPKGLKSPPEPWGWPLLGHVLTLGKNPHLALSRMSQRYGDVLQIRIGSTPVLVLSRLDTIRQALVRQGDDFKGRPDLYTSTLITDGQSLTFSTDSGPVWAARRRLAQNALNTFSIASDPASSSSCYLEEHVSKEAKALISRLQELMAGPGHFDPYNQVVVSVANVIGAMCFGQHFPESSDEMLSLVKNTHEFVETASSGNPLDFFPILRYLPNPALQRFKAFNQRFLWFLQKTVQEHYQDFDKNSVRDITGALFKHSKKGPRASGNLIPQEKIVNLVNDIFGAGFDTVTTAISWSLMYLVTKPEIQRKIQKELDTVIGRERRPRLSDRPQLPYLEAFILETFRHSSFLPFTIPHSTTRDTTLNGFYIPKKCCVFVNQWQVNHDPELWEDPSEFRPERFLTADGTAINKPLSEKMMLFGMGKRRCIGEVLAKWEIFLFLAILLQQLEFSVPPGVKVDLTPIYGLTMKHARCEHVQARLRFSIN

[22] = target: Cytochrome P450 2D6 (Homo sapiens, UniProt P10635);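 also: CYP2D6 member of a cytochrome P450 panel assay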
[23] = test system: Vero; experiment: Vero E6 cell cytotoxicity, SAR follow-up, cytotoxicity control for West Nile virus antiviral project, synthesized analogs (AID 2244); format: functional; conditions: Chlorocebus sabaeus
[24] = test system: Vero; experiment: cytotoxicity of synthesized analogs in Vero cells, SAR follow-up, cytotoxicity control for West Nile virus antiviral project, cell-based, set II (AID 2402); format: functional; conditions: Chlorocebus sabaeus
[25] = target: T8, Kappa-type opioid receptor (Homo sapiens, UniProt P41145); format: functional
T8 sequence (P41145 whole entry): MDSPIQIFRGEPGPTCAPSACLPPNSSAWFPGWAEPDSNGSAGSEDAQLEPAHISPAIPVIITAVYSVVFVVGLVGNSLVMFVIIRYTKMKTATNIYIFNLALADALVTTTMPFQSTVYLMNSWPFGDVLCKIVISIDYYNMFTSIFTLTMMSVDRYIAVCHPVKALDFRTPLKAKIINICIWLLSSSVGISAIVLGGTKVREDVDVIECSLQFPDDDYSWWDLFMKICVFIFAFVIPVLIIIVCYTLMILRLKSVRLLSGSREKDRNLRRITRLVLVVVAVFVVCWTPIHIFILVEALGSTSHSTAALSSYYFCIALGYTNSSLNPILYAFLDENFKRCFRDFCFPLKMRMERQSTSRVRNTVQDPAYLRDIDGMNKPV

[26] = target: Beta-galactosidase (Escherichia coli, UniProt Q8VNN2); format: functional
[27] = target: T8, Kappa-type opioid receptor; format: functional; remark: listed apart in the source
[28] = target: Intestinal-type alkaline phosphatase (Homo sapiens, UniProt P09923); experiment: Dose Response confirmation of uHTS hits from a small molecule inhibitors of human intestinal alkaline phosphatase via a luminescent assay. [Related pubchem assays (depositor defined):AID2544, AID2574]; format: functional

Cytochrome P450 2C9, sequence (P11712 whole entry): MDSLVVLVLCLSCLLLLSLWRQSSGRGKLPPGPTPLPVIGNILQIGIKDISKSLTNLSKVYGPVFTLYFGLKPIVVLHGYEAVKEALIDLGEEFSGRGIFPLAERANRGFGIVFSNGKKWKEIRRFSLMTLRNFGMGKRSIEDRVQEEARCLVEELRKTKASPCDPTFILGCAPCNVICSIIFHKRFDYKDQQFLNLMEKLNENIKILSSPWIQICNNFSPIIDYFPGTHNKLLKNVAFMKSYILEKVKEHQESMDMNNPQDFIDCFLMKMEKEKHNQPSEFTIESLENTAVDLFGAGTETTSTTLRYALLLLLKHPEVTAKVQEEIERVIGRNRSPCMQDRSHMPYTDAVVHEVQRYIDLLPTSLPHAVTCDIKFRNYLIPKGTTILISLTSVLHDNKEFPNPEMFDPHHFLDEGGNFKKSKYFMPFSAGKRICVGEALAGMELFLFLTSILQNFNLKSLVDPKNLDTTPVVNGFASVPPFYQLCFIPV
Lysosomal acid glucosylceramidase, sequence (P04062 whole entry): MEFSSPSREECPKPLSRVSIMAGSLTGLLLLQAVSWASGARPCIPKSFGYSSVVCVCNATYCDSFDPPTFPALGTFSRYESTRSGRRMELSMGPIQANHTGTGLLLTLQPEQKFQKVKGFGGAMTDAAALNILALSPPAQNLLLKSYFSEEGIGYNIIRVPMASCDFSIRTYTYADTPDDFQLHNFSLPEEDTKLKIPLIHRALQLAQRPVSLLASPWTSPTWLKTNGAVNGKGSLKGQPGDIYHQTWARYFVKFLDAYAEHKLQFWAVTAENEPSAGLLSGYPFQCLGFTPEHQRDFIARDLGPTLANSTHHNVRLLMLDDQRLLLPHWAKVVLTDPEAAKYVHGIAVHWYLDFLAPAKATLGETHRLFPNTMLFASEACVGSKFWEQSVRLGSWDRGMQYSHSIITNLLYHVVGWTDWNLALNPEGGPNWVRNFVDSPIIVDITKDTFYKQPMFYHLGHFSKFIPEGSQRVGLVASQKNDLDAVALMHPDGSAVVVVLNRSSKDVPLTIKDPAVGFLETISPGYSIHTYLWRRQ

With COc1ccc2c(c1)-c1ccccc1S(=O)(=O)N2C(C)=O the EC50 [1] was > 50 µM (not active), the AC50 [2] was 12.6 µM (inconclusive) and the AC50 [3] was 25.1 µM (inconclusive).
In the case of CCn1c2ccccc2c2cc(NC(=O)c3cccc(OC)c3OC)ccc21, the IC50 [4] is reported as > 66.2 µM (inactive), the IC50 [5] is reported as 1.7 µM (active) and the IC50 [6] is reported as > 49.8 µM (inactive). For the same compound, the CC50 [7] was > 40 µM (active), the IC50 [8] was 3.08 µM (active) and the IC50 [9] was > 88.8 µM (inactive). The IC50 [10] was > 50 µM (inactive).
In the case of COc1cccc(C(=O)NC(=S)Nn2cnnc2)c1OC, the IC50 [11] is reported as > 59.6 µM (not active) and the IC50 [12] is reported as 2.08 µM (active).
For O=C(CCCCCCN1C(=O)c2ccccc2C1=O)N1CCC(c2ccccc2)C1 (configuration not stated), the EC50 [13] was 0.624 µM (active), the EC50 [14] was > 195 µM (not active) and the IC50 [15] was 7.71 µM (active). The EC50 [16] was 1.81 µM (active).
With COc1ccc2nc(C)cc(SCC(=O)Nc3c(C)cccc3C)c2c1 the EC50 [17] was > 100 µM (not active), the EC50 [18] was > 79.4 µM (not active) and the EC50 [19] was > 79.4 µM (not active). For the same compound, the EC50 [20] was > 79.4 µM (not active).
In the case of COC(=O)CN1C(=O)C2(OCCCO2)c2cc(Br)ccc21, the EC50 [1] is reported as > 10 µM (not active).
With Cc1ccc(Cl)cc1N1CCN(C(=O)C2(S(=O)(=O)c3ccc(Cl)cc3)CC2)CC1 the EC50 [13] was 0.928 µM (active) and the EC50 [16] was 5.26 µM (active).
For COc1ccc2nc(C)cc(SCC(=O)NNC(=O)COc3ccccc3)c2c1, the EC50 [17] was 79.5 µM (not active), the AC50 [21] was 10 µM (inconclusive) and the AC50 [2] was 10 µM (inconclusive). The AC50 [22] was 10 µM (inconclusive) and the AC50 [3] was 3.55 µM (inconclusive).
In the case of Cc1c(Cl)cccc1NC(=O)Nn1cnnc1, the IC50 [11] is reported as > 59.6 µM (not active) and the IC50 [12] is reported as 1.87 µM (active).
In the case of COc1ccc(-c2csc(N(Cc3ccccc3)C(=O)c3ccccc3Cl)n2)cc1, the CC50 [23] is reported as > 40 µM (active) and the CC50 [24] is reported as > 100 µM (active).
With O=C(N/N=C/c1ccccn1)c1ccc([N+](=O)[O-])cc1 the EC50 [14] was > 195 µM (not active), the IC50 [25] was greater than 32 µM and the EC50 [26] was > 31.5 µM (inactive). The IC50 [27] was 14.7 µM (active).
For CC(/C=N/NC(=O)CCn1nnc2ccccc21)=C\c1ccccc1, the IC50 [28] was > 100 µM (inactive).
